Laboratory results reported in EP3046573B1, “AMYLIN ANALOGUES” (Zealand Pharma A/S, priority 2013, dated 2015).
Numbered stars: 1 amine (or outer) side, 2 acyl side, 3 side chain; on linkers, the order of the positions; unused ones are H or OH. Bridge positions count the residues as written; N and C are the ends. Square brackets hold non-standard residues; d marks the D form. Peptide text beside a SMILES is read from it. * marks the point of attachment. C20 diacid = O=C(O)CCCCCCCCCCCCCCCCCCC(=O)*; γGlu = O=C(O)[C@H](CCC(=O)[*:2])N[*:1]; Hyp = O=C(O)[C@@H]1C[C@@H](O)CN1; NMeI = CC[C@H](C)[C@H](NC)C(=O)O; Sar = CNCC(=O)O

How the values were obtained:
[1] = Pharmacokinetic (PK) profiling in rats; assay type: in vivo; settings: male, Sprague Dawley, rat, plasma, single sc bolus, 100 nmol/kg (18, NN96), 20 nmol/kg (72, 76), 30 nmol/kg (73, 82, 118, 162, 166, 172); for CL/F: apparent clearance; for half-life: terminal elimination half-life, read-out: t½ (converted)
Method: Sprague Dawley male rats were given a single subcutaneous (sc) bolus of each peptide to be tested at doses as specified below..
Study A: Following the administration of a 100 nmol/kg dose of a test peptide of the invention (Compound 18) and a comparison pramlintide analogue NN96 (see Example 5, above), respectively, blood samples were drawn from the tail vein at 0.5, 3, 8, 15, 36, 60 and 81 hours post-dosing. 4 rats were used (2 rats per compound). The rats were euthanized immediately after the last blood sampling by overdose of O2/CO2.
Study B: 20 nmol/kg doses of Compound 72 and Compound 76, respectively, of the invention were administered. Blood samples were drawn by sublingual bleeding prior to dosing and at 2, 6, 12, 24, 48, 72 and 96 hours after dosing. 4 rats were used (2 rats per compound). The rats were euthanized immediately after the last blood sampling by overdose of O2/CO2.
Study C: 30 nmol/kg doses of Compound 73, Compound 82 and Compound 118, respectively, of the invention were administered. Blood samples were drawn from the tail vein prior to dosing and at 24, 48, 72 and 96 hours after dosing. Blood samples were taken from two rats at each time point, and only 2 blood samples were drawn from each rat, i.e. 8 rats were used for each compound. The rats were euthanized immediately after the last blood sampling by concussion and cervical dislocation.
Study D: 30 nmol/kg doses of Compound 162, Compound 166 and Compound 172 were administered. Blood samples were drawn from the tail vein prior to dosing and at 24, 48, 72, 96 and 168 hours after dosing. Blood samples were taken from two rats at each time point, and only 2 blood samples were drawn from each rat, i.e. 10 rats were used for each compound. The rats were euthanized immediately after the last blood sampling by concussion and cervical dislocation.
The dosing vehicle used for each test peptide was a mannitol-containing histidine buffer (pH 7.0). Plasma samples were analyzed after precipitation with ethanol by liquid chromatography mass spectrometry (LC-MS/MS). Mean plasma concentrations were used for calculation of the pharmacokinetic parameters using the non-compartmental approach in Phoenix WinNonlin 6.3.
Plasma terminal elimination half-life (t½) was determined as In(2)/λz, where λz is the magnitude of the slope of the log linear regression of the log concentration versus time profile during the terminal phase. Apparent clearance (CL/F) was determined as dose/AUCinf (sc), where AUCinf is the area under the plasma concentration vs. time curve extrapolated to infinity (AUCinf = AUClast + Clast/λz, where Clast is the last observed plasma concentration).

[2] = test system: male Zucker diabetic fatty (ZDF) rats; assay: Efficacy testing: glycemic control in Zucker diabetic fatty rats; assay type: in vivo; settings: for terminal HbA1c levels: 4 weeks, vehicle 8.7 ± 0.2
Method: Whole-blood glucose levels were determined on tail-vein blood samples by the Biosen (EKF Diagnostic, Germany) enzyme-based electrode method. Blood samples were analyzed for glycated hemoglobin (HbA1c) using a Cobas c111 analyzer (Roche Diagnostics, Mannheim, Germany). Plasma insulin levels were measured using a Meso Scale Discovery (MSD) system (Rockville, MD, USA). Liver fat content was determined by magnetic resonance (MR) scanning using an Echo systems MR scanner. Fat depots were measured by weighing of excised fat.
84 male Zucker diabetic fatty (ZDF) rats (9-10 weeks of age) were used in this study. The animals were housed in groups of n = 2. Stratification of the animals was based on non-fasting blood glucose (primary), changes in non-fasting blood glucose measured from the arrival of the animals until one week before the initiation of the study (secondary) and body weight (tertiary). The animals were further divided into two "teams" with a pair-fed group (group 2) allocated to team 2. Animals from group 2 were pair-fed in order to compare between the contribution made by reduced food intake and by drug-induced effects on glycemic control. The amount of food eaten by the animals treated with Compound 82 (30 nmol/kg, team 1) each day was determined, and the same amount was given to a vehicle-treated pair-fed group of animals the following day.
Rats were treated for 4 weeks with Compound 82 (3, 30 and 100 nmol/kg, sc, every (ev.) 5th day), Compound 18 (30 nmol/kg sc, every 5th day), or the GLP-1 analogue liraglutide (40 nmol/kg sc, twice daily (bid)).
The effects of the compounds on glycemic control were investigated by measurement of non-fasting and fasting blood glucose levels and HbA1c levels.
Statistical analyses were performed using GraphPad™ Prism version 5. The measured parameters were compared using one- way ANOVA followed by Dunnett's multiple comparison test. Comparison between the pair-fed vehicle-treated group and the Compound 82 (30 nmol/kg) group was done using Student's two-tailed and unpaired t-test. Differences were considered statistically significant at p < 0.05.

| CL/F [1] | half-life [1] | SMILES | terminal HbA1c levels ([2]; 3 nmol/kg sc every 5th day) | terminal HbA1c levels ([2]; 30 nmol/kg sc every 5th day) | HbA1c levels compared to the pair-fed group ([2]; 30 nmol/kg, P < 0.05) | terminal HbA1c levels ([2]; 100 nmol/kg sc every 5th day) | non-fasting blood glucose levels on day 13 and on day 27 ([2]; compared to the vehicle treated rats, P < 0.001) | fasting blood glucose levels ([2]; terminal, Compound 82 3, 30, and 100 nmol/kg, Compound 18 30 nmol/kg, P < 0.001 vs. vehicle) |
| --- | --- | --- | --- | --- | --- | --- | --- | --- |
| 4.01 mL/h/kg | 44.2 h | CC[C@H](C)[C@@H](C(=O)N[C@@H](CC(C)C)C(=O)N[C@@H](CO)C(=O)N[C@@H](CO)C(=O)N[C@H](C(=O)N[C@@H](CCC(=O)O)C(=O)N[C@H](C(=O)NCC(=O)N[C@@H](CO)C(=O)N[C@@H](CCC(=O)O)C(=O)N[C@H](C(=O)N1CCC[C@H]1C(N)=O)[C@@H](C)O)C(C)C)[C@@H](C)O)N(C)C(=O)[C@H](C)NC(=O)CN(C)C(=O)[C@H](Cc1ccccc1)NC(=O)[C@H](CO)NC(=O)[C@H](CO)NC(=O)[C@H](CCCNC(=N)N)NC(=O)[C@H](Cc1c[nH]cn1)NC(=O)[C@H](CC(C)C)NC(=O)[C@H](Cc1ccccc1)NC(=O)[C@H](CCC(=O)O)NC(=O)[C@H](C)NC(=O)[C@H](CC(C)C)NC(=O)[C@H](CCCNC(=N)N)NC(=O)[C@H](CCC(N)=O)NC(=O)[C@@H](NC(=O)[C@H](C)NC(=O)[C@@H]1CSSC[C@H](NC(=O)[C@H](CCCNC(=N)N)NC(=O)CC[C@H](NC(=O)CCCCCCCCCCCCCCCCCCC(=O)O)C(=O)O)C(=O)N[C@@H](CC(N)=O)C(=O)N[C@@H]([C@@H](C)O)C(=O)N[C@@H](C)C(=O)N[C@@H]([C@@H](C)O)C(=O)N1)[C@@H](C)O [Compound 82, [19CD]-isoGlu-RC()NTATC()ATQRLAEFLHRSSF-Gly(Me)-A-Ile(Me)-LSSTEVGSETP-NH2] ({C20 diacid-γGlu}-RCNTATCATQRLAEFLHRSSF[Sar]A[NMeI]LSSTEVGSETP-NH2; disulfide 2-7) | 5.6 ± 0.2% | 5.4 ± 0.1% | significant reductions | 5.4 ± 0.1% | significantly lower | significantly decreased |
| 3.79 mL/h/kg | 27.9 h | CC[C@H](C)[C@@H](C(=O)N[C@@H](CC(C)C)C(=O)N[C@@H](CO)C(=O)N[C@@H](CO)C(=O)N[C@H](C(=O)N[C@@H](CCC(=O)O)C(=O)N[C@H](C(=O)NCC(=O)N[C@@H](CO)C(=O)N[C@@H](CCC(=O)O)C(=O)N[C@H](C(=O)N1C[C@H](O)C[C@H]1C(N)=O)[C@@H](C)O)C(C)C)[C@@H](C)O)N(C)C(=O)[C@H](C)NC(=O)CN(C)C(=O)[C@H](Cc1ccccc1)NC(=O)[C@H](CO)NC(=O)[C@H](CO)NC(=O)[C@H](CCCNC(=N)N)NC(=O)[C@H](Cc1c[nH]cn1)NC(=O)[C@H](CC(C)C)NC(=O)[C@H](Cc1ccccc1)NC(=O)[C@H](CCC(=O)O)NC(=O)[C@H](C)NC(=O)[C@H](CC(C)C)NC(=O)[C@H](CCCNC(=N)N)NC(=O)[C@H](CCC(=O)O)NC(=O)[C@@H](NC(=O)[C@H](C)NC(=O)[C@@H]1CSSC[C@H](NC(=O)[C@H](CCCNC(=N)N)NC(=O)CC[C@H](NC(=O)CCCCCCCCCCCCCCCCCCC(=O)O)C(=O)O)C(=O)NCC(=O)N[C@@H]([C@@H](C)O)C(=O)N[C@@H](C)C(=O)N[C@@H]([C@@H](C)O)C(=O)N1)[C@@H](C)O [Compound 166, [19CD]-isoGlu-RC()GTATC()ATERLAEFLHRSSF-Gly(Me)-A-Ile(Me)-LSSTEVGSET-Hyp-NH2] ({C20 diacid-γGlu}-RCGTATCATERLAEFLHRSSF[Sar]A[NMeI]LSSTEVGSET[Hyp]-NH2; disulfide 2-7) |  |  |  |  |  |  |
| 9.16 mL/h/kg | 24.4 h | CC[C@H](C)[C@@H](C(=O)N[C@@H](CC(C)C)C(=O)N[C@@H](CO)C(=O)N[C@@H](CO)C(=O)N[C@H](C(=O)N[C@@H](CC(=O)O)C(=O)N[C@H](C(=O)NCC(=O)N[C@@H](CO)C(=O)N[C@@H](CC(=O)O)C(=O)N[C@H](C(=O)N1CCC[C@H]1C(N)=O)[C@@H](C)O)C(C)C)[C@@H](C)O)N(C)C(=O)[C@H](C)NC(=O)CN(C)C(=O)[C@H](Cc1ccccc1)NC(=O)[C@H](CO)NC(=O)[C@H](CO)NC(=O)[C@H](CCCNC(=N)N)NC(=O)[C@H](Cc1c[nH]cn1)NC(=O)[C@H](CC(C)C)NC(=O)[C@H](Cc1ccccc1)NC(=O)[C@H](CCC(=O)O)NC(=O)[C@H](C)NC(=O)[C@H](CC(C)C)NC(=O)[C@H](CCCNC(=N)N)NC(=O)[C@H](CC(=O)O)NC(=O)[C@@H](NC(=O)[C@H](C)NC(=O)[C@@H]1CSSC[C@H](NC(=O)[C@H](CCCNC(=N)N)NC(=O)CC[C@H](NC(=O)CCCCCCCCCCCCCCCCCCC(=O)O)C(=O)O)C(=O)N2CCC[C@H]2C(=O)N[C@@H]([C@@H](C)O)C(=O)N[C@@H](C)C(=O)N[C@@H]([C@@H](C)O)C(=O)N1)[C@@H](C)O [Compound 172, [19CD]-isoGlu-RC()PTATC()ATDRLAEFLHRSSF-Gly(Me)-A-Ile(Me)-LSSTDVGSDTP-NH2] ({C20 diacid-γGlu}-RCPTATCATDRLAEFLHRSSF[Sar]A[NMeI]LSSTDVGSDTP-NH2; disulfide 2-7) |  |  |  |  |  |  |

| SMILES | CL/F [1] | half-life [1] | terminal HbA1c levels ([2]; 3 nmol/kg sc every 5th day) | terminal HbA1c levels ([2]; 30 nmol/kg sc every 5th day) | HbA1c levels compared to the pair-fed group ([2]; 30 nmol/kg, P < 0.05) | terminal HbA1c levels ([2]; 100 nmol/kg sc every 5th day) | non-fasting blood glucose levels on day 13 and on day 27 ([2]; compared to the vehicle treated rats, P < 0.001) | fasting blood glucose levels ([2]; terminal, Compound 82 3, 30, and 100 nmol/kg, Compound 18 30 nmol/kg, P < 0.001 vs. vehicle) |
| --- | --- | --- | --- | --- | --- | --- | --- | --- |
| CC[C@H](C)[C@H](NC(=O)[C@@H]1CCCN1C(=O)CNC(=O)[C@H](Cc1ccccc1)NC(=O)[C@H](CC(N)=O)NC(=O)[C@H](CC(N)=O)NC(=O)[C@H](CO)NC(=O)[C@H](CO)NC(=O)[C@H](Cc1c[nH]cn1)NC(=O)[C@H](Cc1c[nH]cn1)NC(=O)[C@H](CC(C)C)NC(=O)[C@H](Cc1ccccc1)NC(=O)[C@H](CCC(=O)O)NC(=O)[C@H](C)NC(=O)[C@H](CC(C)C)NC(=O)[C@H](CCCNC(=N)N)NC(=O)[C@H](CCC(N)=O)NC(=O)[C@@H](NC(=O)[C@H](C)NC(=O)[C@@H]1CSSC[C@H](NC(=O)[C@H](CCCNC(=N)N)NC(=O)CC[C@H](NC(=O)CCCCCCCCCCCCCCCCCCC(=O)O)C(=O)O)C(=O)N[C@@H](CC(N)=O)C(=O)N[C@@H]([C@@H](C)O)C(=O)N[C@@H](C)C(=O)N[C@@H]([C@@H](C)O)C(=O)N1)[C@@H](C)O)C(=O)N[C@@H](CC(C)C)C(=O)N1CCC[C@H]1C(=O)N1CCC[C@H]1C(=O)N[C@H](C(=O)N[C@@H](CC(N)=O)C(=O)N[C@H](C(=O)NCC(=O)N[C@@H](CO)C(=O)N[C@@H](CC(N)=O)C(=O)N[C@H](C(=O)N1CCC[C@H]1C(N)=O)[C@@H](C)O)C(C)C)[C@@H](C)O [NN96, N-α-[(S)-4-carboxy-4-(19-carboxynonadecanoylamino)butyryl]-[Arg1,Glu14,His17,Pro37]-pramlintide, reference compound] ({C20 diacid-γGlu}-RCNTATCATQRLAEFLHHSSNNFGPILPPTNVGSNTP-NH2; disulfide 2-7) | 4.73 mL/h/kg | 34.7 h |  |  |  |  |  |  |
